Assays:
[1] = biological target: FGFR4 kinase (Homo sapiens, UniProt P22455); assay: Inhibition of FGFR4 kinase activity (ULight-labeled JAK-1 peptide, EU665/EU615 reading); assay type: biochemical; conditions: FGFR4 kinase 3.85 nM, ATP 100 μM, enzymatic reaction 2 hours
Procedure: (§1) Assay of activity of small molecule compounds on inhibiting FGFR4 kinase and FGFR4 V550L mutant kinase. The assay method was as follows:
(§2) 1) Dilution of Compounds:
(§3) In a 96-well plate a, the compounds were serially diluted 3-fold with DMSO to form 11 concentrations, and the 12th concentration was pure DMSO (as a positive control); In a new 96-well plate b, the above solutions were diluted 25-fold with ultrapure water (DMSO concentration was 4%).
(§4) 2) Transferring Compounds to a 384-Well Plate:
(§5) The above solutions of compounds diluted with ultrapure water in the 96-well plate b were pipetted into corresponding wells of a 384-well plate.
(§6) 3) Adding 4× kinase solution: 2.5 μl of the above 4× kinase solutions were pipetted with a multi-channel pipette into corresponding reaction wells of the 384-well plate, and the mixture was mixed well and pre-reacted at room temperature for 5 minutes.
(§7) 4) Adding 2× substrate/ATP mixture: 5 μl of the above 2× substrate/ATP mixtures were pipetted with a multi-channel pipette into corresponding reaction wells of the 384-well plate.
(§8) 5) Negative control: negative control wells were set up in the 384-well plate by adding 2.5 μl of 4× substrate, 2.5 μl of 4× enzyme solution, 2.5 μl of 1× kinase Assay Buffer and 2.5 μl of ultrapure water containing 4% DMSO to each well.
(§9) 6) Centrifuging, mixing well, and reacting at room temperature in the dark for 2 hours.
(§10) 7) Terminating the Enzymatic Reaction:
(§11) 5 μl of the above 4× stop solutions were pipetted into corresponding wells of the 384-well plate, and the mixture was centrifuged, mixed well, and then reacted at room temperature for 5 minutes.
(§12) 8) Development of the Reaction:
(§13) 5 μl of the above 4× detection solutions were pipetted into corresponding wells of the 384-well plate, and the mixture was centrifuged, mixed well, and then reacted at room temperature for 1 hour.
(§14) 9) The 384-well plate was placed into a plate reader, and the signal was detected using the appropriate program.
(§15) 10) Analysis of IC50: Reading of well=10000*EU665 value/EU615 value Inhibition rate=(reading of positive control well−reading of assay well)/(reading of positive control well−reading of negative control well)*100%
(§16) The corresponding IC50 can be calculated by inputting the drug concentrations and corresponding inhibition rates into GraphPad Prism 5 and processing.
Assay Conditions for Screening FGFR4 Kinase Activity Inhibitory Molecule:
The final concentration of FGFR4 kinase in the reaction system was 3.85 nM, the final concentration of ATP was 100 μM, the final concentration of substrate ULight™-labeled JAK-1 (Tyr1023) Peptide was 100 nM, and the time for enzymatic reaction was 2 hours.
The highest final concentration of the compound in the reaction system was 2.5 μM. After serial 3-fold dilution, there were 11 concentrations in total, and the lowest final concentration was 0.042 nM. The final concentration of DMSO was 1%.

[2] = biological target: FGFR4 V550L kinase (Homo sapiens, UniProt P22455, V550L); assay: Inhibition of FGFR4 V550L mutant kinase activity (ULight-labeled PolyGT, EU665/EU615 reading); assay type: biochemical; conditions: FGFR4 V550L kinase 1 nM, ATP 10 μM, enzymatic reaction 2 hours
FGFR4 V550L kinase, sequence (P22455 22-802 V550L): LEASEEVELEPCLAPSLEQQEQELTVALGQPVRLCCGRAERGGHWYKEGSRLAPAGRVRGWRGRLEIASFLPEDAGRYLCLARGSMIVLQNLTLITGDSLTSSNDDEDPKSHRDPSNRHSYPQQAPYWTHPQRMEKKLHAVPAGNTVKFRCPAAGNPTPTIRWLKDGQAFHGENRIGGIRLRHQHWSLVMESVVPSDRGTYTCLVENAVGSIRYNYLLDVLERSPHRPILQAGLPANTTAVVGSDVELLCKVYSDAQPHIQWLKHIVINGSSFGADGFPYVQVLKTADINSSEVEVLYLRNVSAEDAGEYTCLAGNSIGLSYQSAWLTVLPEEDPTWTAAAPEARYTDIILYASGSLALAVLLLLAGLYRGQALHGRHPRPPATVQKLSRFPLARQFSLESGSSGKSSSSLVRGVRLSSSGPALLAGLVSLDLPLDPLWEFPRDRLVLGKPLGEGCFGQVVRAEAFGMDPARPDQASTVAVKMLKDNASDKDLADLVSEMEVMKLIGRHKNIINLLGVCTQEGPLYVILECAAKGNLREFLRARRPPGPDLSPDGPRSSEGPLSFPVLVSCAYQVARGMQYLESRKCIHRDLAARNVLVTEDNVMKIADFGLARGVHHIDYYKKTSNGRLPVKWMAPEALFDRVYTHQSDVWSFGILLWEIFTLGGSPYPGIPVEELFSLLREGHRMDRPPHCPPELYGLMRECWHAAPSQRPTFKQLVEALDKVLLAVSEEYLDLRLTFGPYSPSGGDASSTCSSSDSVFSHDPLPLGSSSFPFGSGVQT
Procedure: as §1, §2, §3, §4, §5, §6, §7, §8, §9, §10, §11, §12, §13, §14, §15, §16
Assay Conditions for Screening FGFR4 V550L Kinase Activity Inhibitory Molecule:
The final concentration of FGFR4 V550L kinase in the reaction system was 1 nM, the final concentration of ATP was 10 μM, the final concentration of substrate ULight™-labeled PolyGT was 100 nM, and the time for enzymatic reaction was 2 hours.
The highest final concentration of the compound in the reaction system was 2.5 μM. After seral 3-fold dilution, there were 11 concentrations in total, and the lowest final concentration was 0.042 nM. The final concentration of DMSO was 1%.

[3] = biological target: T1, Ba/F3 ETV6-FGFR4 cells (Homo sapiens, UniProt P22455); assay: Inhibition of cell proliferation (CCK-8), Ba/F3 ETV6-FGFR4 cells; assay type: cell-based; conditions: 72 hours of incubation, read-out: Ba/F3 ETV6-FGFR4 IC50
T1 construct: fused on or other part: N-terminal part of ETV6 (TEL), the oligomerising partner that makes the FGFR4 kinase constitutively active; P41212 (Transcription factor ETV6)
T1 sequence (P22455 whole entry, change not shown, the tested form may be a part): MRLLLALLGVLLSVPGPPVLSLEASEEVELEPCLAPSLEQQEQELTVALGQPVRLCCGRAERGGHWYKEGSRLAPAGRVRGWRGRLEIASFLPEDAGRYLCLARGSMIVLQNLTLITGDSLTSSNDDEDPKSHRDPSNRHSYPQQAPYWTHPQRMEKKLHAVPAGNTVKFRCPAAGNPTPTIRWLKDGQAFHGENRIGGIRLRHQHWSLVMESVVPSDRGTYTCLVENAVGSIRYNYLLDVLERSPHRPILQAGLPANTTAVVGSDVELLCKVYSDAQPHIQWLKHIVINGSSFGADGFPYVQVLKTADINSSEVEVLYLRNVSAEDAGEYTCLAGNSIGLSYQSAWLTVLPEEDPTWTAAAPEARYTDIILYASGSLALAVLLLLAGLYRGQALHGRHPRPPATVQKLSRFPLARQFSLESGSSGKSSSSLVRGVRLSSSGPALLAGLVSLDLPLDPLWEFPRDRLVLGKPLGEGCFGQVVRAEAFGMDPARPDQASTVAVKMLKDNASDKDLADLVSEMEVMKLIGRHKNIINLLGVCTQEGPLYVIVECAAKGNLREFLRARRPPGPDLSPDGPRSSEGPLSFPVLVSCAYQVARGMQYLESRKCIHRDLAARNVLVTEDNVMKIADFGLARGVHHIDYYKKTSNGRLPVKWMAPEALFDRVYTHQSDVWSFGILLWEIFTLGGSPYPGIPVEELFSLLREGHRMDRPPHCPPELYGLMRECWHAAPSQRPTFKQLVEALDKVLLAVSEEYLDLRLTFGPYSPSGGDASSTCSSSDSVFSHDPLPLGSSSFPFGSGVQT
Procedure: (§17) Compounds were assayed for inhibiting cell proliferation, and the specific method was as follows: • 1. Cells were cultured to a logarithmic growth phase, pipetted evenly, transferred to a 15 mL centrifuge tube, and centrifuged at 1000 rpm at room temperature for 4 minutes; • 2. The supernatant was discarded; 5 mL of complete medium was added and pipetted evenly; 10 μL of cell suspension was weighed, mixed well with 10 μL of 0.4% trypan blue, and counted under a cell counter; the proportion of living cells was ensured to be above 90%; • 3. The cell suspension was seeded into a 96-well plate (80 μL of cell suspension per well) according to the conditions shown in Table 5; in the outer 36 wells of the 96-well plate, no cells were added but only sterile water was added; only the inner 60 wells were used for cell assay and control; • 4. 5× compound dilution: the compounds were serially diluted 4-fold to give a total of 9 concentrations; 80-fold overall dilution was completed with complete medium, the resulting concentration was 5 times the final drug concentration, and DMSO concentration was 1.25%; • 5. 20 μL of the corresponding compounds with different concentrations were added to each well of assay wells of the 96-well plate; 20 μL of complete medium was added to positive and negative control wells and shaken well; and the final concentration of DMSO in each well was 0.25%; • 6. After 72 hours of incubation, 10 μL of CCK-8 reagent was added to each well and further incubated at 37° C. for 1-2 hours; and the OD value was read at 450 nm; 7. Cell survival rate (%)=[(As−Ab)/(Ac−Ab)]*100% • As: Assay well (medium containing cells, CCK-8, compound) • Ac: Control well (medium containing cells, CCK-8) • Ab: Blank well (medium without cell and compound, CCK-8) • 8. The values were imported into Graphpad Prism 5 software for IC50 calculation.

[4] = biological target: T2, Ba/F3 ETV6-FGFR4-V550L cells (Homo sapiens, UniProt P22455, V550L, cells depend on it); assay: Inhibition of cell proliferation (CCK-8), Ba/F3 ETV6-FGFR4-V550L cells; assay type: cell-based; conditions: 72 hours of incubation, read-out: Ba/F3 ETV6-FGFR4-V550L IC50
T2 construct: fused on or other part: N-terminal part of ETV6 (TEL), the oligomerising partner of the fusion; already named as the first entry; P41212 (Transcription factor ETV6)
T2 sequence (P22455 whole entry V550L, the tested form may be a part): as the sequence (P22455 whole entry, change not shown, the tested form may be a part) above, with V550L counted along it
Procedure: as §17

FGFR4 kinase, sequence (P22455 22-802): as the sequence (P22455 22-802 V550L) above, with L529V counted along it

| Compound | IC50 [1] [nM] | IC50 [2] [nM] | GI50 [3] [nM] | GI50 [4] [nM] |
| --- | --- | --- | --- | --- |
| C=CC(=O)Nc1cc(N2CCC(N3CCN(C)CC3)CC2)c(C)cc1Nc1ncc(C#N)c(Nc2ccccc2OC(C)C)n1 [Example 13, N-(2-((5-cyano-4-((2-isopropoxyphenyl)amino)pyrimidin-2-yl)amino)-4-methyl-5-(4-(4-methylpiperazin-1-yl)piperidin-1-yl)phenyl) acrylamide] | 10 to 50 | 10 to 50 | ≤ 10 | 10 to 50 |
| C=CC(=O)Nc1cc(N2CCN(C)CC2)c(F)cc1Nc1ncc(C#N)c(Nc2ccccc2OC(C)C)n1 [Example 14, N-(2-((5-cyano-4-((2-isopropoxyphenyl)amino)pyrimidin-2-yl)amino)-4-fluoro-5-(4-methylpiperazin-1-yl)phenyl) acrylamide] | 50 to 100 | 10 to 50 | ≤ 10 | ≤ 10 |
| C=CC(=O)Nc1cc(N2CCN(CC)CC2)c(F)cc1Nc1ncc(C#N)c(Nc2ccccc2OC(C)C)n1 [Example 15, N-(2-((5-cyano-4-((2-isopropoxyphenyl)amino)pyrimidin-2-yl)amino)-5-(4-ethylpiperazin-1-yl)-4-fluorophenyl) acrylamide] | 50 to 100 | 10 to 50 | ≤ 10 | ≤ 10 |
| C=CC(=O)Nc1cc(N2CCC(N(C)C)CC2)c(F)cc1Nc1ncc(C#N)c(Nc2ccccc2OC(C)C)n1 [Example 16, N-(2-((5-cyano-4-((2-isopropoxyphenyl)amino)pyrimidin-2-yl)amino)-5-(4-(dimethylamino)piperidin-1-yl)-4-fluorophenyl) acrylamide] | 10 to 50 | ≤ 10 | ≤ 10 | ≤ 10 |
| C=CC(=O)Nc1cc(N2CCC(N3CCCC3)CC2)c(F)cc1Nc1ncc(C#N)c(Nc2ccccc2OC(C)C)n1 [Example 17, N-(2-((5-cyano-4-((2-isopropoxyphenyl)amino)pyrimidin-2-yl)amino)-4-fluoro-5-(4-(pyrrolidin-1-yl)piperidin-1-yl)phenyl) acrylamide] | 10 to 50 | 10 to 50 | ≤ 10 | ≤ 10 |
| C=CC(=O)Nc1cc(N2CCC(N3CCCCC3)CC2)c(F)cc1Nc1ncc(C#N)c(Nc2ccccc2OC(C)C)n1 [Example 18, N-(5-([1,4‘- bipiperidin]-1′-yl)-2-((5-cyano-4-((2-isopropoxyphenyl)amino)pyrimidin-2-yl)amino)-4-fluorophenyl) acrylamide] | 10 to 50 | 10 to 50 | ≤ 10 | ≤ 10 |
| C=CC(=O)Nc1cc(N2CCC(N3CCOCC3)CC2)c(F)cc1Nc1ncc(C#N)c(Nc2ccccc2OC(C)C)n1 [Example 19, N-(2-((5-cyano-4-((2-isopropoxyphenyl)amino)pyrimidin-2-yl)amino)-4-fluoro-5-(4-morpholinopiperidin-1-yl)phenyl) acrylamide] | 100 to 1000 | 10 to 50 | ≤ 10 | ≤ 10 |
| C=CC(=O)Nc1cc(N2CCC(N3CCN(C)CC3)CC2)c(F)cc1Nc1ncc(C#N)c(Nc2ccccc2OC(C)C)n1 [Example 20, N-(2-((5-cyano-4-((2-isopropoxyphenyl)amino)pyrimidin-2-yl)amino)-4-fluoro-5-(4-(4-methylpiperazin-1-yl)piperidin-1-yl)phenyl) acrylamide] | 10 to 50 | 10 to 50 | ≤ 10 | ≤ 10 |
| C=CC(=O)Nc1cc(N2CCN(CC)CC2)ccc1Nc1ncc(C#N)c(Nc2c(F)cccc2OC(C)C)n1 [Example 21, N-(2-((5-cyano-4-((2-fluoro-6-isopropoxyphenyl)amino)pyrimidin-2-yl)amino)-5-(4-ethylpiperazin-1-yl)phenyl) acrylamide] | 10 to 50 | 10 to 50 | ≤ 10 | 10 to 50 |
| C=CC(=O)Nc1cc(N2CCN(CC)CC2)ccc1Nc1ncc(C#N)c(Nc2c(C)cccc2OC(C)C)n1 [Example 22, N-(2-((5-cyano-4-((2-isopropoxy-6-methylphenyl)amino)pyrimidin-2-yl)amino)-5-(4-ethylpiperazin-1-yl)phenyl) acrylamide] | 100 to 1000 | 100 to 1000 | 100 to 1000 | 100 to 1000 |
| C=CC(=O)Nc1cc(N2CCN(CC)CC2)ccc1Nc1ncc(C#N)c(Nc2cc(F)ccc2OC(C)C)n1 [Example 23, N-(2-((5-cyano-4-((5-fluoro-2-isopropoxyphenyl)amino)pyrimidin-2-yl)amino)-5-(4-ethylpiperazin-1-yl)phenyl) acrylamide] | 50 to 100 | ≤ 10 | ≤ 10 | ≤ 10 |
| C=CC(=O)Nc1cc(N2CCN(CC)CC2)ccc1Nc1ncc(C#N)c(Nc2cc(C)ccc2OC(C)C)n1 [Example 24, N-(2-((5-cyano-4-((2-isopropoxy-5-methylphenyl)amino)pyrimidin-2-yl)amino)-5-(4-ethylpiperazin-1-yl)phenyl) acrylamide] | 10 to 50 | 10 to 50 | 10 to 50 | ≤ 10 |
| C=CC(=O)Nc1cc(N2CCN(CC)CC2)ccc1Nc1ncc(C#N)c(Nc2cc(C#N)ccc2OC(C)C)n1 [Example 25, N-(2-((5-cyano-4-((5-cyano-2-isopropoxyphenyl)amino)pyrimidin-2-yl)amino)-5-(4-ethylpiperazin-1-yl)phenyl) acrylamide] | 50 to 100 | 10 to 50 | 10 to 50 | 10 to 50 |
| C=CC(=O)Nc1cc(N2CCN(CC)CC2)ccc1Nc1ncc(C#N)c(Nc2cc(C(F)(F)F)ccc2OC(C)C)n1 [Example 26, N-(2-((5-cyano-4-((2-isopropoxy-5-(trifluoromethyl)phenyl)amino)pyrimidin-2-yl)amino)-5-(4-ethylpiperazin-1-yl)phenyl) acrylamide] | 100 to 1000 | 100 to 1000 | 100 to 1000 | 100 to 1000 |
| C=CC(=O)Nc1cc(N2CCN(CC)CC2)ccc1Nc1ncc(C#N)c(Nc2ccc(F)cc2OC(C)C)n1 [Example 27, N-(2-((5-cyano-4-((4-fluoro-2-isopropoxyphenyl)amino)pyrimidin-2-yl)amino)-5-(4-ethylpiperazin-1-yl)phenyl) acrylamide] | ≤ 10 | ≤ 10 | ≤ 10 | ≤ 10 |

Reference: US12582654B2, “Cyano-substituted pyridine and cyano-substituted pyrimidine compound and preparation method therefor and application thereof” (BEIJING SCITECH-MQ PHARMACEUTICALS LIMITED, priority 2019, dated 2026)
